Values after ≈ are worked out from the molar mass of the structure shown.

The subject of assay [1] is human glioma cancer cell line (UVW). Kind of assay: alamarBlue cytotoxicity assay, UVW cells. In kind it is cell-based. Conditions: tumour cell line, 24 h treatment, 0.4–100 µg/mL, mean ± SD. An excerpt:
(§1) All media and supplements were obtained from Invitrogen (Paisley, UK). The following human cell lines were used in the current study: the human glioma cancer cell line (UVW) previously described, the prostate carcinoma cell line (PC-3M), the normal prostate epithelial cell line (PNT2A), and the normal foreskin fibroblast cell line (Hs27). All cell lines were obtained from in house stocks (UVW) or from stocks purchased from the ATCC (Rockville, MD, USA) and are routinely genetically verified and confirmed as free from mycoplasma contamination. UVW, PNT2A, and Hs27 cells were maintained in Eagle’s Minimum Essential Medium (MEM), RPMI 1640 Medium, and Dulbecco’s Modified Eagle’s Medium (DMEM), respectively. All media were supplemented with 10% v/v fetal bovine serum, penicillin (100 units/mL), streptomycin (100 μg/mL), Fungizone (2.5 μg/mL of amphotericin B), and L-glutamine (2 mM). The PC-3M cells were cultured in the same MEM medium as described for UVW cells with the addition of 1% v/v MEM Non-essential Amino Acids Solution, 1% v/v MEM Vitamin Solution, and 1mM sodium pyruvate. The cells were cultured at 37 °C in a humidified atmosphere of 5% CO2.
(§2) Each sample tested was dissolved in DMSO at 50 mg/mL and kept at −20 °C until extract preparation was proceeded. For the biological assays, the samples were diluted in culture medium to get the selected concentrations. The toxicity of the flavonoids on UVW, PC-3M, PNT2A, and Hs27 cells was assessed by the fluorometric measurement of metabolic activity using the AlamarBlue assay (Invitrogen). Briefly, cells were seeded on 96-well culture plates (3.3 × 10^3cells/well). […] Fluorescence was measured on a micro plate fluorescence reader (Spectramax Gemini XS, Molecular Devices, Sunnyvale, CA, USA) using an excitation wavelength of 560 nm and an emission wavelength of 590 nm. Cell viability was calculated and plotted as the percentage of metabolically active cells relative to the control. […]

The subject of assay [2] is prostate carcinoma cell line (PC-3M). Kind of assay: alamarBlue cytotoxicity assay, PC-3M cells. In kind it is cell-based. The note with it: Homo sapiens, tumour cell line, 24 h treatment, 0.4–100 µg/mL, mean ± SD.
Source text: as §1, §2

Assay [3] deals with normal prostate epithelial cell line (PNT2A). Description: alamarBlue cytotoxicity assay, PNT2A cells. The note with it: Homo sapiens, 24 h treatment, 0.4–100 µg/mL, mean ± SD. In kind it is cell-based.
Source text: as §1, §2

The subject of assay [4] is normal foreskin fibroblast cell line (Hs27). Description: alamarBlue cytotoxicity assay, Hs27 cells. The note with it: Homo sapiens, 24 h treatment, 0.4–100 µg/mL, mean ± SD. It is filed as cell-based. From the text: All media and supplements were obtained from Invitrogen (Paisley, UK). The following human cell lines were used in the current study: the human glioma cancer cell line (UVW) previously described, the prostate carcinoma cell line (PC-3M), the normal prostate epithelial cell line (PNT2A), and the normal foreskin fibroblast cell line (Hs27). All cell lines were obtained from in house stocks (UVW) or from stocks purchased from the ATCC (Rockville, MD, USA) and are routinely genetically verified and confirmed as free from mycoplasma contamination. UVW, PNT2A, and Hs27 cells were maintained in Eagle’s Minimum Essential Medium (MEM), RPMI 1640 Medium, and Dulbecco’s Modified Eagle’s Medium (DMEM), respectively. All media were supplemented with 10% v/v fetal bovine serum, penicillin (100 units/mL), streptomycin (100 μg/mL), Fungizone (2.5 μg/mL of amphotericin B), and L-glutamine (2 mM). […] The toxicity of the flavonoids on UVW, PC-3M, PNT2A, and Hs27 cells was assessed by the fluorometric measurement of metabolic activity using the AlamarBlue assay (Invitrogen). […] Fluorescence was measured on a micro plate fluorescence reader (Spectramax Gemini XS, Molecular Devices, Sunnyvale, CA, USA) using an excitation wavelength of 560 nm and an emission wavelength of 590 nm. Cell viability was calculated and plotted as the percentage of metabolically active cells relative to the control. […]

The test system of another assay is sarcoma 180. Set-up: method as in earlier work. The note with it: tumours implanted in mice; cited from earlier work.
For assay [5], the system named is carcinoma of Ehrlich tumours. Also noted: method as in earlier work. Conditions: tumours implanted in mice; cited from earlier work.
In a further assay the test system is lung cancer A549. Set-up: method as in PMID 25000464. Conditions: cited from earlier work.

In the case of `COc1ccc(-c2cc(=O)c3c(O)cc(OC)c(O)c3o2)cc1` [7,4′-di-O-methylisoscutellarein], the results for the IC50 in assay [1], in assay [2] and in assay [3] were 98.5 ± 1.13 µg/mL (≈ 314 µM), over 100 µg/mL and 88.7 ± 1.13 µg/mL (≈ 282 µM), respectively.
In the case of `COc1ccc(-c2cc(=O)c3c(O)cc(O)cc3o2)cc1` [acacetin], the IC50 in assay [1] is 27.4 ± 1.09 µg/mL (≈ 96.3 µM); in assay [2] it was 21.1 ± 1.16 µg/mL (≈ 74.3 µM); in assay [3], 51.3 ± 1.09 µg/mL (≈ 181 µM); in assay [4], over 100 µg/mL.
For `O=C(/C=C/c1ccc(O)cc1)OC[C@H]1O[C@@H](Oc2c(-c3ccc(O)cc3)oc3cc(O)cc(O)c3c2=O)[C@H](O)[C@@H](O)[C@@H]1O` [tiliroside, kaempferol-3-O-b-D-(6′′-E-p-coumaroyl) glucopyranoside], the IC50 is over 100 µg/mL in assay [1], 60.5 ± 1.12 µg/mL (≈ 102 µM) in assay [2] and over 100 µg/mL in assay [3]. In addition, in the assay with sarcoma 180, the “tumour growth inhibition, sarcoma 180” value is listed as “significantly inhibited the growth”. Moreover, the “tumour growth inhibition, carcinoma of Ehrlich” value in assay [5] is given as “significantly inhibited the growth”. The “toxic effects on A549 cells (in words)” value with lung cancer A549 was “toxic effects”.
